Where two headings read alike, the source gives them in different places.
Tests used:
in vivo [1] = conditions: cynomolgus monkey, sc
Excerpt: (§1) Cynomolgus monkeys were used to evaluate the pharmacokinetics in monkeys of the acylated oxyntomodulin peptide analogs according to the present invention.

GLP-1 receptor [2] = biological target: T1, GLP-1 receptor (Homo sapiens, UniProt P43220); assay: Human GLP-1 receptor activation assay (CRE-luciferase); type: cell-based; parameters: host or cells: CHO-K1
Target sequence in this assay (P43220 24-463): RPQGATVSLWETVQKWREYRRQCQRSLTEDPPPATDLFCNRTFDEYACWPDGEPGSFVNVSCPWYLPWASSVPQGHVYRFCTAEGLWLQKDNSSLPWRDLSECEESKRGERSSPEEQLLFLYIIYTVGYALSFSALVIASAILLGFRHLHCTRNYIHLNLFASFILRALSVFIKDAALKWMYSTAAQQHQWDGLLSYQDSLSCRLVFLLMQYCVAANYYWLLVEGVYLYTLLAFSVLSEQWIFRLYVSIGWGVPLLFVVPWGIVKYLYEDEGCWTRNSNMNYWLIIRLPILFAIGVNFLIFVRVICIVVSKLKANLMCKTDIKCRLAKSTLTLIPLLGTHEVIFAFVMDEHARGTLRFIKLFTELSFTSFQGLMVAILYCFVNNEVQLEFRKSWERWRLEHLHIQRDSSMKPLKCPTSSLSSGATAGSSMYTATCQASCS

glucagon receptor [3] = biological target: T2, glucagon receptor (Homo sapiens, UniProt P47871); conditions: from Korean Patent Application No. 2017-0103798 / 2018-0095717; cited from earlier work
Target sequence in this assay (P47871 26-477, species assumed): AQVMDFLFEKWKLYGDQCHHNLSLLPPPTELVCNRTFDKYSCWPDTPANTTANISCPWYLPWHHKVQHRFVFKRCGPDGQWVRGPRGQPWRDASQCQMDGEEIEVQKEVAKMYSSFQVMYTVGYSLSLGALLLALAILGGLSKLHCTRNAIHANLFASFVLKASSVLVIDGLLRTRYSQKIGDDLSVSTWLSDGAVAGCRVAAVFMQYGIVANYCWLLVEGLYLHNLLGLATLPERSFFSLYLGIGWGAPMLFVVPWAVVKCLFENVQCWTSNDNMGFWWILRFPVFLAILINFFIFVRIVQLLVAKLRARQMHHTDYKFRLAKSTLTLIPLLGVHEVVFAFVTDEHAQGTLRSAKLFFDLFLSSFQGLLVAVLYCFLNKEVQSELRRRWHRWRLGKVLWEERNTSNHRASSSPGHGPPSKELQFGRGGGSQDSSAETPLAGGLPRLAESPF

glucagon receptor [4] = biological target: T2, glucagon receptor; assay: Human glucagon receptor activation assay (CRE-luciferase); type: cell-based; parameters: host or cells: CHO-K1; conditions: CHO-K1 cells transiently transfected
Target sequence in this assay (P47871 26-477): as the sequence (P47871 26-477, species assumed) above

in vivo [5] = conditions: mouse
Excerpt: (§2) ICR mice were used to evaluate the pharmacokinetics in mice of the acylated oxyntomodulin peptide analogs according to the present invention.

GLP-1 receptor [6] = biological target: T1, GLP-1 receptor; conditions: read-out: EC50 to the GLP-1 receptor; from Korean Patent Application No. 2017-0103798 / 2018-0095717; cited from earlier work
Target sequence in this assay (P43220 24-463, species assumed): as the sequence (P43220 24-463) above

[7] = Single-dose pharmacokinetic profile in monkeys; conditions: cynomolgus monkey, plasma, sc, 100 nmmol/kg, Monkey PK (S.C. half-life), single S.C. dose 100 nmmol/kg
Excerpt: as §1

[8] = Single-dose pharmacokinetic profile in mice; conditions: mouse
Excerpt: as §2

## CCCCCCCCCCCCCCCCCC(=O)N[C@@H](CCC(=O)NCCOCCOCC(=O)NCCOCCOCC(=O)NCCCC[C@H](NC(=O)[C@H](CC(=O)O)NC(=O)[C@H](CO)NC(=O)[C@@H](NC(=O)[C@H](Cc1ccccc1)NC(=O)[C@@H](NC(=O)CNC(=O)[C@H](CCC(N)=O)NC(=O)C(C)(C)NC(=O)[C@@H](N)Cc1c[nH]cn1)[C@@H](C)O)[C@@H](C)O)C(=O)N[C@@H](CO)C(=O)N[C@@H](CCCCN)C(=O)N[C@@H](Cc1ccc(O)cc1)C(=O)N[C@@H](CC(C)C)C(=O)N[C@@H](CC(=O)O)C(=O)NC(C)(C)C(=O)N[C@@H](CCCNC(=N)N)C(=O)N[C@@H](CCCNC(=N)N)C(=O)N[C@@H](C)C(=O)N[C@@H](CCC(N)=O)C(=O)N[C@@H](CC(=O)O)C(=O)N[C@@H](Cc1ccccc1)C(=O)N[C@H](C(=O)N[C@@H](CCC(N)=O)C(=O)N[C@@H](Cc1c[nH]c2ccccc12)C(=O)N[C@@H](CC(C)C)C(=O)N[C@@H](CCSC)C(=O)N[C@@H](CC(N)=O)C(=O)N[C@H](C(=O)N[C@@H](CCCCN)C(=O)N[C@@H](CCC(=O)O)C(=O)N[C@@H](Cc1ccc(O)cc1)C(=O)N[C@@H](CCC(=O)O)C(=O)N[C@@H](CCCCNC(=O)CCCCCCCCCCCCCCCCC(=O)O)C(=O)N[C@@H](CCC(=O)O)C(=O)N[C@@H](Cc1ccc(O)cc1)C(=O)N[C@@H](CCC(=O)O)C(=O)O)[C@@H](C)O)C(C)C)C(=O)O [Compound 3]
In vivo [1]; Monkey PK (S.C. half-life)
  half-life: > 24 h
In vivo [1]; monkey PK half-life
  half-life: > 24 h
GLP-1 receptor [2]; CHO-K1, 6 h, read-out: GLP-1 receptor Maximum activation (% vs GLP-1)
  Emax: 98.3%
GLP-1 receptor [2]; CHO-K1 cells transiently transfected, luciferase, 6 hours, 0.1% BSA
  EC50: 0.1 to 1 nM
Glucagon receptor [3]
  EC50: < 0.01 nM
Glucagon receptor [4]; 6 h, relative to glucagon, read-out: GCG receptor Maximum activation (% vs GCG)
  Emax: 98.3%
Glucagon receptor [4]; 6 hours, 0.1% BSA, read-out: GCG receptor EC50
  EC50: 0.1 to 1 nM
In vivo [5]; ICR, sc, Mouse PK (S.C. half-life)
  half-life: > 6 h
In vivo [5]; ICR, sc, half-life in mice
  half-life: > 6 h
In vivo [5]; half-life, pharmacokinetic evaluation in mice (background)
  half-life: 3.3 h
GLP-1 receptor [6]
  EC50: < 0.01 nM

## CCCCCCCCCCCCCCCC(=O)N[C@@H](CCC(=O)NCCCC[C@H](NC(=O)[C@H](CC(=O)O)NC(=O)[C@H](CO)NC(=O)[C@@H](NC(=O)[C@H](Cc1ccccc1)NC(=O)[C@@H](NC(=O)CNC(=O)[C@H](CCC(N)=O)NC(=O)[C@H](CO)NC(=O)[C@@H](N)Cc1c[nH]cn1)[C@@H](C)O)[C@@H](C)O)C(=O)N[C@@H](CO)C(=O)N[C@@H](CCC(=O)O)C(=O)N[C@@H](Cc1ccc(O)cc1)C(=O)N[C@@H](CC(C)C)C(=O)N[C@@H](CC(=O)O)C(=O)N[C@@H](CO)C(=O)N[C@@H](CCC(=O)O)C(=O)N[C@@H](CCCNC(=N)N)C(=O)N[C@@H](C)C(=O)N[C@@H](CCCNC(=N)N)C(=O)N[C@@H](CC(=O)O)C(=O)N[C@@H](Cc1ccccc1)C(=O)N[C@H](C(=O)N[C@@H](C)C(=O)N[C@@H](Cc1c[nH]c2ccccc12)C(=O)N[C@@H](CC(C)C)C(=O)N[C@@H](CCC(=O)O)C(=O)N[C@@H](C)C(=O)NCC(=O)NCC(=O)O)C(C)C)C(=O)O [MEDI0382]
[7]
  half-life: < 6 h
[8]; ICR, plasma, sc, 30 nmmol/kg, Mouse PK (S.C. half-life), ICR mice, single S.C. dose 30 nmmol/kg
  half-life: < 6 h
[8]; in vivo, half-life, pharmacokinetic evaluation in mice (background), mice, dose not given
  half-life: 4 h
